Experimental data: patent US20220088024A1, “METHODS FOR TREATING CANCER USING TOZADENANT” (Biotie Therapies, Inc., priority 2018, published 2022)
Several values for one entry are separate records, joined by “and”; a condition that tells them apart may be missing. Identical values can stand only once.

Assays:
[1] = tested on: CT26 colon carcinoma tumor; experiment: Example 4: anti-tumor responses of SYN-115 in the CT26 tumor mouse model (tumor area, survival); type: in vivo, BALB/c mice; set-up: key: tumor area, width*length, in mm^2
Experimental: The BALB/c mouse colon carcinoma cell line CT26 was cultured in RPMI supplemented with 10% FCS, GlutaMAX, and penicillin/streptomycin. Tumor cells are periodically verified to be Mycoplasma negative by the Victorian Infectious Diseases References Lab (Melbourne, VIC, Australia) by PCR analysis. 1×10^5 cells were resuspended in PBS and injected s.c. into BALB/c mice in a 100 μL volume. At day 9, tumors were measured and mice were randomized into distinct treatment groups to ensure that each group had tumors of similar size at the onset of treatment. Mice were treated i.p. at days 9, 13 and 17 with either isotype control (2A3; 200 μg/mouse) or anti-PD-1 mAb (RMP1-14, 200 μg/mouse) and where indicated, SYN-115 (Batch 71236AA002) at the indicated dose or vehicle control once-daily via oral gavage on days 14 to 29. To calculate a dose of SYN-115 mouse weight was estimated to be 20 g per mouse. Therefore, 100 mg/kg=2 mg per mouse in […] which is equivalent to 10 mg/ml. To make up 40 mL, 400 milligrams of SYN-115 was weighed and added into a Falcon tube, then 1 mL of Tween 80 was added and mixed into a paste and then 39 mL of 1% Methyl Cellulose was added. The solution was vortexed and then left on a rotating mixer for at least 2 hours and maintained at 4° C. Tumor measurements were taken 2-3 times per week. Tumor sizes were determined by width * length and mice were culled when tumors reached the ethical limit of 150 mm^2.

[2] = tested on: CT26 colon carcinoma tumor; experiment: Example 7: SYN-115 dose range as single agent in the CT26 tumor mouse model (tumor area, survival); type: in vivo, BALB/c mice; set-up: key: tumor area in mm^2 (width × length)
Experimental: The BALB/c mouse colon carcinoma cell line CT26 was cultured in RPMI supplemented with 10% FCS, GlutaMAX, and penicillin/streptomycin. Tumor cells are periodically verified to be Mycoplasma negative by the Victorian Infectious Diseases References Lab (Melbourne, VIC, Australia) by PCR analysis. 1×10^5 cells were resuspended in PBS and injected s.c. into BALB/c mice in a 100 μL volume. At day 7 tumors were measured and mice were randomized into distinct treatment groups to ensure that each group had tumors of similar size at the onset of treatment. Mice were treated with SYN-115 (Batch 71236AA006) at the indicated dose or vehicle control once-daily via oral gavage on days 7 to 20. To calculate a dose of SYN-115 mouse weight was estimated to be 20 g per mouse. Therefore, 100 mg/kg=2 mg per mouse in 200 μL, which is equivalent to 10 mg/ml. To make up 40 mL, 400 milligrams of SYN-115 was weighed and added into a Falcon tube, then 1 mL of Tween 80 was added and mixed into a paste and then 39 mL of 1% Methyl Cellulose was added. The solution was vortexed and then left on a rotating mixer for at least 2 hours and maintained at 4° C. Tumor measurements were taken 2-3 times per week. Tumor sizes were determined by width * length and mice were culled when tumors reached the ethical limit of 150 mm^2.

[3] = Example 12: pharmacokinetics of tozadenant tablets (180 mg single dose, bioequivalence study) in humans; type: in vivo; conditions: both sexes, plasma, oral, 180 mg (approximately 2.6 mg/kg in 70 kg human)
Experimental: In a clinical study, tozadenant was administered PO as tablets under fasted conditions, as a single administration at 180 mg. This was an open-label, single-center, randomized, 2-treatment, 2-way crossover bioequivalence study testing 2 different tablet formulation of tozadenant. A modified formulation of tozadenant has been developed for use in Phase 3 studies. The modified formulation for use in Phase 3 studies contains four fewer excipients compared to the Phase 2 formulation. This study, therefore, evaluated the bioequivalence of the Phase 3 formulation and the Phase 2 formulation.
Thirty-six (36) healthy adult, non-tobacco using male and female subjects were enrolled to ensure completion by 32 subjects. […]
The following PK parameters were calculated from the individual plasma tozadenant concentration-time data. All PK parameters were calculated using Phoenix WinNonlin® Version 6.3. […] For the calculation of the PK parameters, concentration values below the limit of quantitation (BLQ) were treated as zero before the first quantifiable concentration and as missing thereafter. […]
AUC and Cmax parameters were not to be calculated for subjects with only 2 or less consecutive time points with detectable concentrations. […]
Tozadenant was quantitated using a validated liquid chromatography/tandem mass spectrometry method with a lower limit of quantitation (LLOQ) of 0.00500 μg/mL.

AUC [3]: 20600 ng·h/mL
SMILES: COc1ccc(N2CCOCC2)c2sc(NC(=O)N3CCC(C)(O)CC3)nc12 [SYN-115, 4-hydroxy-4-methyl-piperidine-1-carboxylic acid (4-methoxy-7-morpholin-4-yl-benzothiazol-2-yl)-amide]
Raw Tumor Measurements ([1]; 2A3 (200 μg/mouse)+SYN-115 (30 mg/kg), Day 0): 12.71 and 14.85 and 16.32 and 18.92 and 20.16 and 22.36
Raw Tumor Measurements ([1]; 2A3 (200 μg/mouse)+SYN-115 (30 mg/kg), Day 4): 37.62 and 42.12 and 40.7 and 53.2 and 38.4 and 52.56
Raw Tumor Measurements ([1]; 2A3 (200 μg/mouse)+SYN-115 (30 mg/kg), Day 13): 146.41 and 150.7 and 93.93 and 186.83
Raw Tumor Measurements ([1]; 2A3 (200 μg/mouse)+SYN-115 (30 mg/kg), Day 15): 188.94 and 100.8
Raw Tumor Measurements ([1]; 2A3 (200 μg/mouse)+SYN-115 (30 mg/kg), Day 19): 186.12
Raw Tumor Measurements ([1]; 2A3 (200 μg/mouse)+SYN-115 (100 mg/kg), Day 0): 12.76 and 14.8 and 17 and 18.9 and 20.5 and 21.12
Raw Tumor Measurements ([1]; 2A3 (200 μg/mouse)+SYN-115 (100 mg/kg), Day 4): 44.73 and 41.31 and 42.7 and 41.76 and 49.64 and 25.85
Raw Tumor Measurements ([1]; 2A3 (200 μg/mouse)+SYN-115 (100 mg/kg), Day 6): 53.4 and 59.78 and 73.04 and 58.32 and 71.76 and 42.92
Raw Tumor Measurements ([1]; 2A3 (200 μg/mouse)+SYN-115 (100 mg/kg), Day 8): 66.75 and 90.2 and 89 and 87.4 and 94.08 and 51.84
Raw Tumor Measurements ([1]; 2A3 (200 μg/mouse)+SYN-115 (100 mg/kg), Day 13): 187.53 and 175.56 and 213.12 and 203.68 and 164.56 and 110.4
Raw Tumor Measurements ([1]; 2A3 (200 μg/mouse)+SYN-115 (100 mg/kg), Day 15): 151.42
Raw Tumor Measurements ([1]; Anti-PD-1 (200 ug)+SYN-115 (30 mg/kg), Day 22): 108 and 136.64 and 120.64
Raw Tumor Measurements ([1]; Anti-PD-1 (200 ug)+SYN-115 (30 mg/kg), Day 25): 160.95 and 151.2 and 159.6
Tumor area, individual mice ([2]; SYN-115 10 mg/kg, Day 0, 10 mg/kg): 4.86 and 6.44 and 7.56 and 8.37 and 8.84 and 11.2
Tumor area, individual mice ([2]; SYN-115 10 mg/kg, Day 2, 10 mg/kg): 6.16 and 6.75 and 7.36 and 15.2 and 9.45 and 14.06
Tumor area, individual mice ([2]; SYN-115 10 mg/kg, Day 4, 10 mg/kg): 15.75 and 12.16 and 22.55 and 23.52 and 8.36 and 26.95
Tumor area, individual mice ([2]; SYN-115 10 mg/kg, Day 7, 10 mg/kg): 20.7 and 14.04 and 41.44 and 34.77 and 6.24 and 46.92
Tumor area, individual mice ([2]; SYN-115 10 mg/kg, Day 9, 10 mg/kg): 30.53 and 22.09 and 52.08 and 50.37 and 0 and 66.99
Tumor area, individual mice ([2]; SYN-115 10 mg/kg, Day 11, 10 mg/kg): 44.1 and 31.32 and 70.68 and 66.42 and 0 and 89.24
Tumor area, individual mice ([2]; SYN-115 10 mg/kg, Day 14, 10 mg/kg): 52.8 and 48.96 and 108.1 and 114.45 and 0 and 125.08
Tumor area, individual mice ([2]; SYN-115 10 mg/kg, Day 16, 10 mg/kg): 91.44 and 67.86 and 132.84 and 135.42 and 0 and 179.55
Tumor area, individual mice ([2]; SYN-115 10 mg/kg, Day 18, 10 mg/kg): 136.71 and 100.98 and 202.5 and 119.88 and 0
Tumor area, individual mice ([2]; SYN-115 10 mg/kg, Day 21, 10 mg/kg): 175.74 and 162 and 160 and 0
Tumor area, individual mice ([2]; SYN-115 10 mg/kg, Day 25): 0
Tumor area, individual mice ([2]; SYN-115 10 mg/kg, Day 29): 0
Tumor area, individual mice ([2]; SYN-115 10 mg/kg, Day 32): 0
Tumor area, individual mice ([2]; SYN-115 10 mg/kg, Day 35): 0
Tumor area, individual mice ([2]; SYN-115 10 mg/kg, Day 37): 0
Tumor area, individual mice ([2]; SYN-115 30 mg/kg, Day 0, 30 mg/kg): 5 (2×) and 6.24 and 7.56 and 8.7 and 12.48
Tumor area, individual mice ([2]; SYN-115 30 mg/kg, Day 2, 30 mg/kg): 12.6 (2×) and 8.12 and 9.28 and 12.95 and 8.4
Tumor area, individual mice ([2]; SYN-115 30 mg/kg, Day 4, 30 mg/kg): 21.6 (2×) and 15.96 and 13.65 and 24.48 and 10.56
Tumor area, individual mice ([2]; SYN-115 30 mg/kg, Day 7, 30 mg/kg): 42.21 (2×) and 25 and 25.5 and 30.21 and 30.24
Tumor area, individual mice ([2]; SYN-115 30 mg/kg, Day 9, 30 mg/kg): 50.16 (2×) and 35.4 and 29.68 and 47.61 and 31.9
Tumor area, individual mice ([2]; SYN-115 30 mg/kg, Day 18, 30 mg/kg): 204.8 (2×) and 114 and 189.23 and 202.86 and 125.4
Tumor area, individual mice ([2]; SYN-115 30 mg/kg, Day 21, 30 mg/kg): 153.4 and 179.4
Raw Tumor Measurements ([2]; SYN-115 (1 mg/kg), Day 0, 1 mg/kg): 5.25 and 6.72 and 8.37 and 7.84 and 9.6 and 10.36
Raw Tumor Measurements ([2]; SYN-115 (1 mg/kg), Day 2, 1 mg/kg): 12.95 and 12.54 and 15.6 and 13.6 and 12.71 and 15.84
Raw Tumor Measurements ([2]; SYN-115 (1 mg/kg), Day 4, 1 mg/kg): 14.8 and 22.95 and 21 and 24.99 and 20.4 and 24.19
Raw Tumor Measurements ([2]; SYN-115 (1 mg/kg), Day 16, 1 mg/kg): 144.1 and 103.55 and 103.74 and 155.61
Raw Tumor Measurements ([2]; SYN-115 (1 mg/kg), Day 18, 1 mg/kg): 208.68 and 167.24 and 138.6
Raw Tumor Measurements ([2]; SYN-115 (1 mg/kg), Day 21): 173.46
Raw Tumor Measurements ([2]; SYN-115 (5 mg/kg), Day 0, 5 mg/kg): 4.8 and 7.8 and 7.54 and 8.84
Raw Tumor Measurements ([2]; SYN-115 (5 mg/kg), Day 2, 5 mg/kg): 13.12 and 11.16 and 13.26 and 10.36
Raw Tumor Measurements ([2]; SYN-115 (5 mg/kg), Day 4, 5 mg/kg): 20.8 and 11.2 and 18.45 and 19.52
Raw Tumor Measurements ([2]; SYN-115 (5 mg/kg), Day 25, 5 mg/kg): 163.8 and 83.52
Raw Tumor Measurements ([2]; SYN-115 (5 mg/kg), Day 29): 101.76
Raw Tumor Measurements ([2]; SYN-115 (5 mg/kg), Day 32): 124.74
Raw Tumor Measurements ([2]; SYN-115 (5 mg/kg), Day 35): 146.52
Raw Tumor Measurements ([2]; SYN-115 (5 mg/kg), Day 37): 161.59
